What was measured:
Type in all cases: in vivo
[1] = test system: barnyardgrass (Echinochloa crus-galli); assay: Test B flooded paddy test, visual plant response rating; settings: 250 g ai/ha, Flood, applied to paddy water, 2-leaf stage, evaluated after 13 to 15 days
Method in brief: (§1)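 At the two-leaf stage, seedlings received compound applied to paddy water flooded 3 cm above soil, a level sustained until assessment. Greenhouse incubation lasted 13 to 15 days before visual comparison with control plants.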

[2] = test system: sedge, umbrella (small-flower umbrella sedge, Cyperus difformis); assay: as above; settings: 250 g ai/ha, Flood, applied to paddy water, 2-leaf stage, evaluated after 13 to 15 days
Method in brief: as §1

[3] = test system: ducksalad (Heteranhera limosa); assay: as above; settings: 250 g ai/ha, Flood, applied to paddy water, 2-leaf stage, evaluated after 13 to 15 days
Method in brief: as §1

[4] = test system: rice (Oryza sativa); assay: as above; settings: 250 g ai/ha, Flood, applied to paddy water, 2-leaf stage, evaluated after 13 to 15 days
Method in brief: as §1

[5] = test system: pigweed (Amaranthus retroflexus); assay: Test A preemergence, visual plant response rating; settings: for Pigweed plant response rating: 125 g ai/ha, preemergence, 0 to 100 scale, 0 no effect, 100 complete control; for Pigweed plant response rating (0 to 100 scale): 500 g ai/ha Preemergence, approx. 10 days
Method in brief: (§2)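 Greenhouse evaluation, approx. 10 days post-spray. Soil: loam + sand. Postemergence stage: 1–2 leaves, height 2–10 cm. Vehicle: non-phytotoxic solvent blend with surfactant. Score: visual injury on a 0 (no effect) to 100 (complete control) scale.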

[6] = test system: ragweed (common ragweed, Ambrosia elatior); assay: Test A preemergence, visual plant response rating; settings: for Ragweed plant response rating: 125 g ai/ha, preemergence, 0 to 100 scale, 0 no effect, 100 complete control; for Ragweed plant response rating (0 to 100 scale): 500 g ai/ha Preemergence, approx. 10 days
Method in brief: as §2

[7] = test system: foxtail, giant (giant foxtail, Setaria faberii); assay: Test A preemergence, visual plant response rating; settings: for Foxtail, Giant plant response rating: 125 g ai/ha, preemergence, 0 to 100 scale, 0 no effect, 100 complete control; for Foxtail, Giant plant response rating (0 to 100 scale): 500 g ai/ha Preemergence, approx. 10 days
Method in brief: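 Ratings use a 0–100 visual scale (100 = complete control) against untreated controls, scored about 10 days after greenhouse treatment. Test chemicals were formulated in surfactant-containing non-phytotoxic solvent and applied either as soil spray after planting (preemergence) or onto one- to two-leaf, 2–10 cm plants (postemergence).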

[8] = test system: barnyardgrass (Echinochloa crus-galli); assay: Test A preemergence, visual plant response rating; settings: for Barnyardgrass plant response rating: 125 g ai/ha, preemergence, 0 to 100 scale, 0 no effect, 100 complete control; for Barnyardgrass plant response rating (0 to 100 scale): 500 g ai/ha Preemergence, approx. 10 days
Method in brief: as §2

[9] = test system: kochia (Kochia scoparia); assay: Test A preemergence, visual plant response rating; settings: for Kochia plant response rating: 125 g ai/ha, preemergence, 0 to 100 scale, 0 no effect, 100 complete control; for Kochia plant response rating (0 to 100 scale): 500 g ai/ha Preemergence, approx. 10 days
Method in brief: as §2

[10] = test system: Italian ryegrass (Lolium multiflorum); assay: Test A preemergence, visual plant response rating; settings: for Ryegrass, Italian plant response rating: 125 g ai/ha, preemergence, 0 to 100 scale, 0 no effect, 100 complete control; for Ryegrass, Italian plant response rating (0 to 100 scale): 500 g ai/ha Preemergence, approx. 10 days
Method in brief: as §2

[11] = test system: pigweed (Amaranthus retroflexus); assay: Test A postemergence, visual plant response rating; settings: for Pigweed plant response rating (0 to 100 scale): 500 g ai/ha, postemergence, 0 is no effect, 100 is complete control; for Pigweed plant response rating: Postemergence, 125 g ai/ha, 0 to 100 scale (0 no effect, 100 complete control)
Method in brief: as §2

[12] = test system: ragweed (common ragweed, Ambrosia elatior); assay: Test A postemergence, visual plant response rating; settings: for Ragweed plant response rating (0 to 100 scale): 500 g ai/ha, postemergence, 0 is no effect, 100 is complete control; for Ragweed plant response rating: Postemergence, 125 g ai/ha, 0 to 100 scale (0 no effect, 100 complete control)
Method in brief: as §2

[13] = test system: wheat (Triticum aestivum); assay: Test A postemergence, visual plant response rating; settings: for Wheat plant response rating (0 to 100 scale): 500 g ai/ha, postemergence, 0 is no effect, 100 is complete control; for Wheat plant response rating: Postemergence, 125 g ai/ha, 0 to 100 scale (0 no effect, 100 complete control)
Method in brief: as §2

[14] = test system: foxtail, giant (giant foxtail, Setaria faberii); assay: Test A postemergence, visual plant response rating; settings: for Foxtail, Giant plant response rating (0 to 100 scale): 500 g ai/ha, postemergence, 0 is no effect, 100 is complete control; for Foxtail, Giant plant response rating: Postemergence, 125 g ai/ha, 0 to 100 scale (0 no effect, 100 complete control)
Method in brief: as §2

[15] = test system: barnyardgrass (Echinochloa crus-galli); assay: Test A postemergence, visual plant response rating; settings: for Barnyardgrass plant response rating (0 to 100 scale): 500 g ai/ha, postemergence, 0 is no effect, 100 is complete control; for Barnyardgrass plant response rating: Postemergence, 125 g ai/ha, 0 to 100 scale (0 no effect, 100 complete control)
Method in brief: as §2

[16] = test system: kochia (Kochia scoparia); assay: Test A postemergence, visual plant response rating; settings: for Kochia plant response rating (0 to 100 scale): 500 g ai/ha, postemergence, 0 is no effect, 100 is complete control; for Kochia plant response rating: Postemergence, 125 g ai/ha, 0 to 100 scale (0 no effect, 100 complete control)
Method in brief: as §2

[17] = test system: blackgrass (Alopecurus myosuroides); assay: Test A postemergence, visual plant response rating; settings: for Blackgrass plant response rating (0 to 100 scale): 500 g ai/ha, postemergence, 0 is no effect, 100 is complete control; for Blackgrass plant response rating: Postemergence, 125 g ai/ha, 0 to 100 scale (0 no effect, 100 complete control)
Method in brief: as §2

[18] = test system: corn (Zea mays); assay: Test A postemergence, visual plant response rating; settings: for Corn plant response rating (0 to 100 scale): 500 g ai/ha, postemergence, 0 is no effect, 100 is complete control; for Corn plant response rating: Postemergence, 125 g ai/ha, 0 to 100 scale (0 no effect, 100 complete control)
Method in brief: as §2

[19] = test system: Italian ryegrass (Lolium multiflorum); assay: Test A postemergence, visual plant response rating; settings: for Ryegrass, Italian plant response rating (0 to 100 scale): 500 g ai/ha, postemergence, 0 is no effect, 100 is complete control; for Ryegrass, Italian plant response rating: Postemergence, 125 g ai/ha, 0 to 100 scale (0 no effect, 100 complete control)
Method in brief: as §2

[20] = test system: galium (catchweed bedstraw, Galium aparine); assay: Test A postemergence, visual plant response rating; settings: for Galium plant response rating (0 to 100 scale): 500 g ai/ha, postemergence, 0 is no effect, 100 is complete control; for Galium plant response rating: Postemergence, 125 g ai/ha, 0 to 100 scale (0 no effect, 100 complete control)
Method in brief: as §2

## CCc1cccc(/C(=N\OC)c2c(O)c(C)nn(C)c2=O)c1 [Compound 68]
[1]
  Plant response rating, Barnyardgrass (0 to 100 scale, 0 is no effect, 100 is complete control): 0
[2]
  Plant response rating, Sedge, Umbrella (0 to 100 scale, 0 is no effect, 100 is complete control): 0
[3]
  Plant response rating, Ducksalad (0 to 100 scale, 0 is no effect, 100 is complete control): 0
[4]
  Plant response rating, Rice (0 to 100 scale, 0 is no effect, 100 is complete control): 0
[5]
  Pigweed plant response rating: 50
  Pigweed plant response rating (0 to 100 scale): 80
[6]
  Ragweed plant response rating: 20
  Ragweed plant response rating (0 to 100 scale): 50
[7]
  Foxtail, Giant plant response rating: 0
  Foxtail, Giant plant response rating (0 to 100 scale): 20
[8]
  Barnyardgrass plant response rating: 0
  Barnyardgrass plant response rating (0 to 100 scale): 0
[9]
  Kochia plant response rating: 10
  Kochia plant response rating (0 to 100 scale): 40
[10]
  Ryegrass, Italian plant response rating: 30
  Ryegrass, Italian plant response rating (0 to 100 scale): 60
[11]
  Pigweed plant response rating (0 to 100 scale): 80
  Pigweed plant response rating: 30
[12]
  Ragweed plant response rating (0 to 100 scale): 90
  Ragweed plant response rating: 70
[13]
  Wheat plant response rating (0 to 100 scale): 0
  Wheat plant response rating: 0
[14]
  Foxtail, Giant plant response rating (0 to 100 scale): 10
  Foxtail, Giant plant response rating: 0
[15]
  Barnyardgrass plant response rating (0 to 100 scale): 0
  Barnyardgrass plant response rating: 0
[16]
  Kochia plant response rating (0 to 100 scale): 80
  Kochia plant response rating: 70
[17]
  Blackgrass plant response rating (0 to 100 scale): 30
  Blackgrass plant response rating: 30
[18]
  Corn plant response rating (0 to 100 scale): 0
  Corn plant response rating: 0
[19]
  Ryegrass, Italian plant response rating (0 to 100 scale): 30
  Ryegrass, Italian plant response rating: 20
[20]
  Galium plant response rating (0 to 100 scale): 70
  Galium plant response rating: 60

## CCc1ccccc1/C(=N\OC)c1c(O)c(C)nn(C)c1=O [Compound 69]
[1]
  Plant response rating, Barnyardgrass (0 to 100 scale, 0 is no effect, 100 is complete control): 0
[2]
  Plant response rating, Sedge, Umbrella (0 to 100 scale, 0 is no effect, 100 is complete control): 0
[3]
  Plant response rating, Ducksalad (0 to 100 scale, 0 is no effect, 100 is complete control): 0
[4]
  Plant response rating, Rice (0 to 100 scale, 0 is no effect, 100 is complete control): 0
[5]
  Pigweed plant response rating: 10
  Pigweed plant response rating (0 to 100 scale): 70
[6]
  Ragweed plant response rating: 10
  Ragweed plant response rating (0 to 100 scale): 40
[7]
  Foxtail, Giant plant response rating: 10
  Foxtail, Giant plant response rating (0 to 100 scale): 30
[8]
  Barnyardgrass plant response rating: 0
  Barnyardgrass plant response rating (0 to 100 scale): 10
[9]
  Kochia plant response rating: 0
  Kochia plant response rating (0 to 100 scale): 10
[10]
  Ryegrass, Italian plant response rating: 10
  Ryegrass, Italian plant response rating (0 to 100 scale): 80
[11]
  Pigweed plant response rating (0 to 100 scale): 70
  Pigweed plant response rating: 40
[12]
  Ragweed plant response rating (0 to 100 scale): 70
  Ragweed plant response rating: 70
[13]
  Wheat plant response rating (0 to 100 scale): 0
  Wheat plant response rating: 0
[14]
  Foxtail, Giant plant response rating (0 to 100 scale): 40
  Foxtail, Giant plant response rating: 10
[15]
  Barnyardgrass plant response rating (0 to 100 scale): 30
  Barnyardgrass plant response rating: 20
[16]
  Kochia plant response rating (0 to 100 scale): 70
  Kochia plant response rating: 50
[17]
  Blackgrass plant response rating (0 to 100 scale): 60
  Blackgrass plant response rating: 10
[18]
  Corn plant response rating (0 to 100 scale): 20
  Corn plant response rating: 0
[19]
  Ryegrass, Italian plant response rating (0 to 100 scale): 80
  Ryegrass, Italian plant response rating: 80
[20]
  Galium plant response rating (0 to 100 scale): 80
  Galium plant response rating: 70

Source: patent US20210045385A1, “PYRIDAZINONE-SUBSTITUTED KETOXIMES AS HERBICIDES” (FMC Corporation, priority 2018, published 2021)
